Laboratory results reported in patent US8907110B2, “Benzodioxepin-3-one compounds as dyes or as fluorescent emitters” (Merck Patent GmbH, priority 2011, dated 2014).

Columns and labels:
Type in all cases: physicochemical
[1] = Absorption strength (absorption spectrum in ethanol); details: for λmax: absorption maximum, dilute solution; for λmax / Half-value width / intense absorption up to / spectral range covered compared with curcumin and beta-carotene: in ethanol; for E1 % value: extinction at the absorption maximum extrapolated to a concentration of 1 g/100 ml, ethanol; for Half-value width: half-value width of the absorption band
Protocol: The measure used for the absorption strength is the so-called E1% value, and the half-value width of the absorption band in relation to the absorption maximum λmax indicated. The E1% value indicates the extinction at the absorption maximum extrapolated to a concentration of 1 g/100 ml. To this end, an absorption spectrum of the substance in ethanol is recorded in dilute solution. The values are compared with the reference spectra of curcumin and beta-carotene.

[2] = Thermal stability by thermographic method (TGA); details: for Temperature at which 98% of the weight was still present: TGA, RT to 800° C., heating rate 10 K/min
Protocol: The thermal stability is determined with the aid of the thermographic method (instrument TGA Q5000 V3.10 Build 258, temperature range RT to 800° C., heating rate 10 K/min).

[3] = Fluorescence measurements in ethanol; details: 0.00804-0.00820 mg/ml, cell thickness 1 cm
Protocol: The substance concentrations in ethanol indicated in the table are measured using an Aminco Bowman 2 fluorescence spectrometer (cell thickness 1 cm; excitation 220-600 nm; emission 220-800 nm; spectral gap width (excitation) 4 nm, (emission) 8 nm; recording speed 10 nm/min; step width (excitation) 5 nm, (emission) 4 nm.

[4] = Solubility determination in phenethyl benzoate (X-Tend 226)
Protocol: The solubility determination was carried out in phenethyl benzoate (X-Tend 226): […]

| Compound | λmax [1] [nm] | E1 % value [1] | Half-value width [1] | Temperature at which 98% of the weight was still present [2] [°C] | thermal stability (in words) [2] | intense absorption up to [1] | spectral range covered compared with curcumin and beta-carotene [1] | Emission [3] [nm] | Solubility in X-Tend 226 [4] [%] | Excitation [3] [nm] |
| --- | --- | --- | --- | --- | --- | --- | --- | --- | --- | --- |
| CC1=C(/C=C/C(C)=C/C=C/C(C)=C/C=C/C=C(C)/C=C/C=C(C)/C=C/C2=C(C)CCCC2(C)C)C(C)(C)CCC1 [Beta-carotene, beta-carotene, reference compound] | 453 | 408 | approx. 88 nm | 84 | – | – | – | – | – | – |
| COc1cc(/C=C/C(=O)CC(=O)/C=C/c2ccc(O)c(OC)c2)ccc1O [Curcumin, curcumin, reference compound] | 426 | 1507 | approx. 78 nm | 223 | not thermally stable | – | – | – | – | – |
| COc1cc(OC)c(OC)cc1/C=C1\Oc2ccc(C)cc2O/C(=C\c2cc(OC)c(OC)cc2OC)C1=O [Example 1, 7-methyl-2,4-bis[1-(2,4,5-trimethoxyphenyl)meth-(Z)-ylidene]benzo[b]-1,4-dioxepin-3-one] | 437 | 505 | approx. 102 nm | 281 | excellent | up to 539 nm | significantly greater spectral range | 412 | 2.2 | – |
| COc1ccc(/C=C2\Oc3ccc(C)cc3O/C(=C\c3ccc(OC)cc3)C2=O)cc1 [Example 2, 2,4-bis[1-(4-methoxyphenyl)meth-(Z)-ylidene]-7-methylbenzo[b]-1,4-dioxepin-3-one] | – | – | – | – | – | up to 478 nm | – | – | – | – |
| COc1ccc(/C=C2\Oc3ccc(C)cc3O/C(=C\c3ccc(OC)c(OC)c3)C2=O)cc1OC [Example 3, 2,4-bis[1-(3,4-dimethoxyphenyl)-meth-(Z)-ylidene]-7-methylbenzo[b]-1,4-dioxepin-3-one] | 369 | 515 | approx. 100 nm | 286 | excellent | – | significantly greater spectral range | 322 | 4.5 | 230 |
| CCCCN(CCCC)c1ccc(/C=C2\Oc3ccc(C)cc3O/C(=C\c3ccc(N(CCCC)CCCC)cc3)C2=O)cc1 [Example 8, 7-methyl-2,4-bis[1-(4-dibutylaminophenyl)meth-(Z)-ylidene]benzo[b]-1,4-dioxepin-3-one] | 484 | 571 | approx. 122 nm | 250 | excellent | up to 609 nm | significantly greater spectral range | 320 | 5.0 | 260 |
